Measurements: patent US20230227435A1, “SMALL MOLECULE MODULATORS OF IL-17” (LEO PHARMA A/S, priority 2020, published 2023)

Each compound was assayed against T1, human IL-17AA (Homo sapiens, UniProt Q16552) (assay: IL-8 release assay in human epithelial keratinocytes adult (HEKa)). Settings: HEKa cells; 3 ng/mL HEK-human IL-17AA + 10 ng/mL human TNFalpha; 68-72 hours; IL-8 by HTRF.
T1 construct: host or cells: HEK (human embryonic kidney) cells
T1 sequence (Q16552 24-155) 1: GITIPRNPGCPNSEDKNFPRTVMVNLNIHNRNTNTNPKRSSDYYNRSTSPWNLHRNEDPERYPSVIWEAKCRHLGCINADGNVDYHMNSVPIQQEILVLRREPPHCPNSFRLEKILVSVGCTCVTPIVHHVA
T1 sequence (Q16552 24-155) 2: T1 sequence (Q16552 24-155) 1
Format: cell-based
Procedure: Example 8: IL-8 Release Assay in Human Epithelial Keratinocytes Adult (HEKa)
Keratinocytes were seeded at 3500 cells/well in 384-well ViewPlates (Perkin Elmer) in Epilife medium (Thermo Fisher) containing human keratinocyte growth supplement (HKGS) without hydrocortisone and incubated in a humid incubator at 37° C., 5% CO2, overnight. The following day growth medium was removed and 25 μl fresh Epilife medium was added. 75 nL test compound in100% DMSO was added into each well reserved for test compounds, by the use of acoustic pipetting. The remaining wells received an equal volume of DMSO only, as vehicle control, or terfenadine in DMSO, as a positive control for any cytotoxic compounds. Subsequently, another 25 μL Epilife medium was added to each well. Finally, wells containing test compounds and wells prepared to yield maximum stimulation received 25 μL of 9 ng/mL recombinant, human embryonic kidney cell (HEK)-derived human IL-17AA+30 ng/mL human TNF-alpha, in Epilife medium. Wells prepared to define 100% inhibition of IL-17 effects received 25 μL of 30 ng/mL human TNF-alpha alone, in Epilife medium. Final concentrations were 3 ng/mL HEK-human IL-17AA+10 ng/mL human TNFalpha (maximum stimulation) and 10 ng/mL human TNFalpha alone (100% inhibition, Emax), respectively. Cells were incubated for 68-72 hours in the incubator. IL-8 released from the cells was measured by the use of a commercial homogenous time-resolved fluorescence (HTRF) assay (CisBio). 2 μL cell culture supernatant was transferred to a 384-well Proxiplate. 5 μL HTRF reagent was added and the plates were incubated sealed in the dark for 3-22 hours at room temperature. Time-resolved fluorescence was read at 665 vs 620 nm, with excitation at 320 nm, and IL-8 levels were calculated as percent of controls. Reduction of the amount of secreted IL-8 indicates decreased IL-17 signaling. Concentration response curves were fitted by the use of a four-parameter logistic equation. Relative IC50 and Emax were reported from curves showing acceptable fit (r^2>0.9). Cytotoxicity was measured in the cell-containing Viewplates following addition of 7 μL PrestoBlue (Thermo Fisher) and incubation for 2.5-3 hours at room temperature, by measuring fluorescence at 615 nm (excitation at 535 nm). Fluorescence was directly proportional to the amount of metabolic activity. Reduction of fluorescence signal indicated cytotoxicity.
Compounds of the present invention were tested in the IL-8 release assay in human epithelial keratinocytes.
In the case of `Cc1cn(C)nc1-c1nnc(C(C(=O)Nc2ccc(-c3c(C)n[nH]c3C)cc2)C(C2CC2)C2CC2)[nH]1` (centres unmarked) [Example 46, 3,3-dicyclopropyl-N-[4-(3,5-dimethyl-1H-pyrazol-4-yl)phenyl]-2-[5-(1,4-dimethylpyrazol-3-yl)-4H-1,2,4-triazol-3-yl]propanamide], the “Rel EC50 IL-8 release assay” value is reported as “no”.

Same assay, conditions: HEKa cells; 3 ng/mL HEK-human IL-17AA + 10 ng/mL human TNFalpha; 68-72 hours; IL-8 by HTRF; read-out: Rel EC50 IL-8 release assay
For `Cc1n[nH]c(C)c1-c1ccc(NC(=O)C(c2nnc(-c3ccncc3)[nH]2)C(C2CC2)C2CC2)cc1` (centres unmarked) [Example 33, 3,3-dicyclopropyl-N-[4-(3,5-dimethyl-1H-pyrazol-4-yl)phenyl]-2-[5-(4-pyridyl)-4H-1,2,4-triazol-3-yl]propanamide], the EC50 was 0.48 µM. Compound `COc1ncccc1-c1nnc(C(C(=O)Nc2ccc(-c3c(C)n[nH]c3C)cc2)C(C2CC2)C2CC2)[nH]1` (centres unmarked) [Example 49, 3,3-dicyclopropyl-N-[4-(3,5-dimethyl-1H-pyrazol-4-yl)phenyl]-2-[5-(2-methoxy-3-pyridyl)-4H-1,2,4-triazol-3-yl]propanamide] has an EC50 of 0.46 µM. Work on `Cc1n[nH]c(C)c1-c1ccc(NC(=O)C(c2nnc(-c3ccnn3CCCO)[nH]2)C(C2CC2)C2CC2)cc1` (centres unmarked) [Example 57, 3,3-dicyclopropyl-N-[4-(3,5-dimethyl-1H-pyrazol-4-yl)phenyl]-2-[5-[2-(3-hydroxypropyl)pyrazol-3-yl]-4H-1,2,4-triazol-3-yl]propanamide] yielded an EC50 of 0.059 µM. `Cc1n[nH]c(C)c1-c1ccc(NC(=O)C(c2nnc(-c3ccnn3C(C)C)[nH]2)C(C2CC2)C2CC2)c(F)c1` (centres unmarked) [Example 12, 3,3-dicyclopropyl-N-[4-(3,5-dimethyl-1H-pyrazol-4-yl)-2-fluoro-phenyl]-2-[5-(2-isopropylpyrazol-3-yl)-4H-1,2,4-triazol-3-yl]propanamide] was tested, and the EC50 was 0.14 µM. `Cc1nonc1-c1nnc(C(C(=O)Nc2ccc(-c3c(C)n[nH]c3C)cc2)C(C2CC2)C2CC2)[nH]1` (centres unmarked) [Example 13, 3,3-dicyclopropyl-N-[4-(3,5-dimethyl-1H-pyrazol-4-yl)phenyl]-2-[5-(4-methyl-1,2,5-oxadiazol-3-yl)-4H-1,2,4-triazol-3-yl]propanamide] showed an EC50 of 0.17 µM. `Cc1n[nH]c(C)c1-c1ccc(NC(=O)C(c2nnc(-c3c(C)n[nH]c3C)[nH]2)C(C2CC2)C2CC2)cc1` (centres unmarked) [Example 29, 3,3-dicyclopropyl-N-[4-(3,5-dimethyl-1H-pyrazol-4-yl)phenyl]-2-[5-(3,5-dimethyl-1H-pyrazol-4-yl)-4H-1,2,4-triazol-3-yl]propanamide] was tested, and the EC50 was 1.4 µM. `Cc1n[nH]c(C)c1-c1ccc(NC(=O)C(c2nnc(-c3ccnn3C(C)C)[nH]2)C(C2CC2)C2CC2)cc1` (single isomer, unassigned) [Example 71, 3,3-dicyclopropyl-N-[4-(3,5-dimethyl-1H-pyrazol-4-yl)phenyl]-2-[5-(2-isopropylpyrazol-3-yl)-4H-1,2,4-triazol-3-yl]propanamide] was tested, and the EC50 was > 0.625 µM. With `Cc1n[nH]c(C)c1-c1ccc(NC(=O)C(c2nnc(C3CCOC3)[nH]2)C(C2CC2)C2CC2)cc1` (centres unmarked) [Example 62, 3,3-dicyclopropyl-N-[4-(3,5-dimethyl-1H-pyrazol-4-yl)phenyl]-2-(5-tetrahydrofuran-3-yl-4H-1,2,4-triazol-3-yl)propanamide] the EC50 was 1.6 µM. `Cc1cc(-c2nnc(C(C(=O)Nc3ccc(-c4c(C)n[nH]c4C)cc3)C3CCC(F)(F)CC3)[nH]2)ccn1` (centres unmarked) [Example 65, 2-(4,4-difluorocyclohexyl)-N-[4-(3,5-dimethyl-1H-pyrazol-4-yl)phenyl]-2-[5-(2-methyl-4-pyridyl)-4H-1,2,4-triazol-3-yl]acetamide] showed an EC50 of 0.52 µM. With `CCOc1cc(-c2nnc(C(C(=O)Nc3ccc(-c4c(C)n[nH]c4C)cc3)C(C3CC3)C3CC3)[nH]2)ccn1` (centres unmarked) [Example 51, 3,3-dicyclopropyl-N-[4-(3,5-dimethyl-1H-pyrazol-4-yl)phenyl]-2-[5-(2-ethoxy-4-pyridyl)-4H-1,2,4-triazol-3-yl]propanamide] the EC50 was 0.1 µM. In the case of `Cc1n[nH]cc1-c1nnc(C(C(=O)Nc2ccc(-c3c(C)n[nH]c3C)cc2)C(C2CC2)C2CC2)[nH]1` (centres unmarked) [Example 39, 3,3-dicyclopropyl-N-[4-(3,5-dimethyl-1H-pyrazol-4-yl)phenyl]-2-[5-(3-methyl-1H-pyrazol-4-yl)-4H-1,2,4-triazol-3-yl]propanamide], the EC50 is reported as 0.5 µM. In the case of `Cc1n[nH]c(C)c1-c1ccc(NC(=O)C(c2nnc(-c3ccnn3C3CCC3)[nH]2)C(C2CC2)C2CC2)cc1` (centres unmarked) [Example 27, 2-[5-(2-cyclobutylpyrazol-3-yl)-4H-1,2,4-triazol-3-yl]-3,3-dicyclopropyl-N-[4-(3,5-dimethyl-1H-pyrazol-4-yl)phenyl]propanamide], the EC50 is reported as 0.032 µM. Compound `Cc1ccc(-c2nnc(C(C(=O)Nc3ccc(-c4c(C)n[nH]c4C)cc3)C(C3CC3)C3CC3)[nH]2)cn1` (centres unmarked) [Example 36, 3,3-dicyclopropyl-N-[4-(3,5-dimethyl-1H-pyrazol-4-yl)phenyl]-2-[5-(6-methyl-3-pyridyl)-4H-1,2,4-triazol-3-yl]propanamide] has an EC50 of 0.44 µM. For `Cc1cccnc1-c1nnc(C(C(=O)Nc2ccc(-c3c(C)n[nH]c3C)cc2)C(C2CC2)C2CC2)[nH]1` (centres unmarked) [Example 60, 3,3-dicyclopropyl-N-[4-(3,5-dimethyl-1H-pyrazol-4-yl)phenyl]-2-[5-(3-methyl-2-pyridyl)-4H-1,2,4-triazol-3-yl]propanamide], the EC50 was 0.25 µM. Compound `Cc1n[nH]c(C)c1-c1ccc(NC(=O)C(c2nnc(Cc3cccnc3)[nH]2)C(C2CC2)C2CC2)cc1` (centres unmarked) [Example 15, 3,3-dicyclopropyl-N-[4-(3,5-dimethyl-1H-pyrazol-4-yl)phenyl]-2-[5-(3-pyridylmethyl)-4H-1,2,4-triazol-3-yl]propanamide] has an EC50 of 0.35 µM. `Cc1n[nH]c(C)c1-c1ccc(NC(=O)C(c2nnc(-c3ccccn3)[nH]2)C(C2CC2)C2CC2)cc1` (centres unmarked) [Example 58, 3,3-dicyclopropyl-N-[4-(3,5-dimethyl-1H-pyrazol-4-yl)phenyl]-2-[5-(2-pyridyl)-4H-1,2,4-triazol-3-yl]propanamide] was tested, and the EC50 was 0.31 µM. `Cc1n[nH]c(C)c1-c1ccc(NC(=O)C(c2nnc(Cc3cc[nH]n3)[nH]2)C(C2CC2)C2CC2)cc1` (centres unmarked) [Example 16, 3,3-dicyclopropyl-N-[4-(3,5-dimethyl-1H-pyrazol-4-yl)phenyl]-2-[5-(1H-pyrazol-3-ylmethyl)-4H-1,2,4-triazol-3-yl]propanamide] was tested, and the EC50 was 1.5 µM. `COc1ccccc1-c1nnc(C(C(=O)Nc2ccc(-c3c(C)n[nH]c3C)cc2)C(C2CC2)C2CC2)[nH]1` (centres unmarked) [Example 19, 3,3-dicyclopropyl-N-[4-(3,5-dimethyl-1H-pyrazol-4-yl)phenyl]-2-[5-(2-methoxyphenyl)-4H-1,2,4-triazol-3-yl]propanamide] gave an EC50 of 0.62 µM. For `Cc1n[nH]c(C)c1-c1ccc(NC(=O)C(c2nnc(-c3c(F)cnn3C)[nH]2)C(C2CC2)C2CC2)cc1` (centres unmarked) [Example 14, 3,3-dicyclopropyl-N-[4-(3,5-dimethyl-1H-pyrazol-4-yl)phenyl]-2-[5-(4-fluoro-2-methyl-pyrazol-3-yl)-4H-1,2,4-triazol-3-yl]propanamide], the EC50 was 0.3 µM. In the case of `COc1cc(-c2nnc(C(C(=O)Nc3ccc(-c4c(C)n[nH]c4C)cc3)C3CCC(F)(F)CC3)[nH]2)ccn1` (centres unmarked) [Example 66, 2-(4,4-difluorocyclohexyl)-N-[4-(3,5-dimethyl-1H-pyrazol-4-yl)phenyl]-2-[5-(2-methoxy-4-pyridyl)-4H-1,2,4-triazol-3-yl]acetamide], the EC50 is reported as 0.64 µM. `Cc1n[nH]c(C)c1-c1ccc(NC(=O)C(c2nnc(-c3ccnn3C(C)C)[nH]2)C(C2CC2)C2CC2)cc1` (single isomer, unassigned) [Example 70, 3,3-dicyclopropyl-N-[4-(3,5-dimethyl-1H-pyrazol-4-yl)phenyl]-2-[5-(2-isopropylpyrazol-3-yl)-4H-1,2,4-triazol-3-yl]propanamide] showed an EC50 of 0.027 µM. With `Cc1n[nH]c(C)c1-c1ccc(NC(=O)C(c2nnc(-c3cnn(C)c3C)[nH]2)C(C2CC2)C2CC2)cc1` (centres unmarked) [Example 38, 3,3-dicyclopropyl-N-[4-(3,5-dimethyl-1H-pyrazol-4-yl)phenyl]-2-[5-(1,5-dimethylpyrazol-4-yl)-4H-1,2,4-triazol-3-yl]propanamide] the EC50 was 0.36 µM.
